Measurements published in the NIST ThermoML archive (doi:10.1007/s10765-009-0625-z).

Assay: xn = mol fraction of the nth substance listed
Conditions: Liquid

c1ccc2[nH]ccc2c1 [1H-indole] + Cc1ccc2ccccc2c1
specific volume [m3/kg], 100 kPa
Conditions	293.15 K	303.15 K	313.15 K	323.15 K	333.15 K	343.15 K	353.15 K
x1 = 0.25	0.0009744	0.0009821	0.0009893	0.0009968	0.001005	0.001013	0.00102
x1 = 0.5	0.0009522	0.0009621	0.0009692	0.0009765	0.0009836	0.0009909	0.0009983
x1 = 0.75	–	0.0009406	0.0009471	0.0009539	0.0009609	0.0009674	0.0009747
x1 = 1	–	–	–	0.0009295	0.000936	0.0009428	0.0009499

specific volume [m3/kg], 333.15 K, Constant-volume piezometry
Conditions	x1 = 0.25	x1 = 0.5	x1 = 0.75	x1 = 1
100 kPa	0.001005	0.0009836	0.0009609	0.000936
10000 kPa	0.0009988	0.0009782	0.000956	0.0009315
20000 kPa	0.000993	0.000973	0.0009513	0.0009273
30000 kPa	0.0009876	0.0009679	0.0009467	0.0009228
40000 kPa	0.0009824	0.0009633	0.0009422	0.0009192
50000 kPa	0.0009776	0.0009586	0.0009379	0.0009157
60000 kPa	0.0009732	0.0009544	0.0009341	–
70000 kPa	0.0009685	0.0009504	0.0009304	–
80000 kPa	0.0009645	0.0009464	0.0009267	–
90000 kPa	0.0009607	0.0009427	0.0009233	–
100000 kPa	0.0009569	0.0009391	0.0009198	–
110000 kPa	0.0009533	0.0009358	0.0009167	–
120000 kPa	0.0009497	0.0009325	0.0009134	–
130000 kPa	0.0009464	0.0009292	0.0009104	–
140000 kPa	0.0009432	0.0009262	0.0009077	–
150000 kPa	0.00094	0.0009231	0.0009048	–
160000 kPa	0.0009369	0.0009202	0.000902	–
170000 kPa	0.000934	0.0009174	–	–
180000 kPa	–	0.0009148	–	–
190000 kPa	–	0.0009122	–	–
200000 kPa	–	0.0009095	–	–
210000 kPa	–	0.000907	–	–
220000 kPa	–	0.0009047	–	–
230000 kPa	–	0.0009023	–	–
240000 kPa	–	0.0008999	–	–
250000 kPa	–	0.0008977	–	–
260000 kPa	–	0.0008956	–	–
270000 kPa	–	0.0008934	–	–
